# Data: patent US20030170656A1, “Method of screening for factors that modulate gene expression” (Chiron Corporation, priority 1995, published 2003)
# B1: 16.1: 61 amino acid polypeptide of SEQ ID NO. 2, deconvoluted from pool 16.1, capable of inducing c-fos transcription in NIH3T3 cells (protein)
# chain: MTLMVFKCSDNLLLIVVYAKVFPSTSCIHYQIYTCKFEVLLFSQHELKIFCNSARQGSSCL
# What was measured:
# Assay type in all cases: cell-based
# [1] = test system: serum responsive element (SRE)-luciferase construct in FTL cells; experiment: SRE-luciferase reporter assay (luciferase assay) in NIH3T3 derived FTL cells; conditions: 4000 cells
# Method: (§1) A construct comprising in operable linkage a luciferase reporter gene and the serum responsive element (SRE) was stably transfected into NIH3T3 derived FTL cells which were selected as the responsive cells. Plasmid DNAs from small library pools of 100 to 500 independent colonies per pool were constructed and in vitro transcribed into cRNAs. Each pool of cRNAs were injected into Xenopus laevis oocytes and cultured at 18° C. overnight. The next day, each oocyte was then cocultured with FTL cells transfected with the SRE-luciferase construct and incubated at 37° C. for three hours in a microwell. The oocytes were removed and induction of luciferase gene was assayed by luciferase assay, and also by bDNA assay against luciferase mRNA. The luciferase assay was sensitive to 4000 cells with a minimum concentration of 1 nM of PDGFBB (PDGF β chain dimer). The bDNA assay detected a lower concentration of library, with the ability to detect from 4000 cells less than 0.01 nM of PDGFBB.
# [2] = test system: luciferase mRNA (SRE-luciferase construct) in FTL cells; experiment: bDNA assay against luciferase mRNA in SRE-luciferase FTL cells; conditions: 4000 cells
# Method: as §1
# c-fos mRNA in FTL cells = experiment: bDNA assay against c-fos mRNA in NIH3T3 derived FTL cells
# Method: To assay for a growth factor that stimulates the expression of the c-fos gene, NIH3T3 derived FTL cells were selected as the responsive cells. A library for screening is prepared from human tissue as described above for expression in Xenopus oocytes. Plasmid DNAs from small library pools of 100 to 500 independent colonies per pool were constructed and in vitro transcribed into cRNAs. Each pool of cRNAs were injected into Xenopus laevis oocytes and cultured at 18° C. overnight. The next day, each oocyte was then cocultured on a bed of NIH3T3 derived FTL cells in a microwell and incubated at 37° C. for three hours.
# The oocytes were removed and induction of c-fos messenger was measured by bDNA assay against c-fos mRNA. […] In the present experiment, a bDNA assay detected a lower concentration of library, with the ability to detect from 4000 FTL cells less than 0.01 nM of PDGFBB (PDGF β chain dimer). As previously described, administration of PDGFBB to cells, including FTL cells, induces the transcription of the c-fos gene.
# [3] = test system: c-fos mRNA in NIH3T3 cells; experiment: c-fos induction by bDNA assay in NIH3T3 cells (small molecule pool screen with PDGFBB); conditions: bDNA against c-fos mRNA, read-out: concentration giving 50% of maximal c-fos induction
# Method: Small molecule library pools are prepared as described above, and 48 such pools were marked and divided for screening. An aliquot of each pool (2 μM final concentration) was placed in a micro-well on a bed of NIH3T3 cells in a microwell and incubated at 37° C. for 45 minutes with 1 ηM PDGFBB.
# Each well was assayed by induction of c-fos messenger by bDNA assay against c-fos mRNA. In a previous study (described in example 8), a bDNA assay detected induction of c-fos mRNA by less than 0.01 ηM of PDGFBB (PDGF β chain dimer). 1 ηM of PDGFBB gives 50% of maximal c-fos induction. As previously described, administration of PDGFBB to cells, including FTL cells, induces the transcription of the c-fos gene.
# In this study, induction or reduction of the c-fos gene was measured by bDNA. Where an agonist was present in the small molecule library pool, c-fos induction was expected to occur at about the same level or greater as induction by administration of PDGFBB. Where an antagonist was present in the small molecule library pool, c-fos transcription was expected to be reduced perhaps to non-detectable levels. […]
# [4] = test system: c-fos transcription in NIH3T3 cells; experiment: Xenopus oocyte/NIH3T3 coculture, c-fos induction by bDNA assay; conditions: compared to non-stimulated NIH3T3 cells
# Description: Manual defolliculated Xenopus oocytes are excellent at expressing in vitro transcribed cRNA and its background c-fos induction activity is almost none. Taking advantage of the size of Xenopus oocytes, a coculture system using Xenopus oocytes and NIH3T3 cells was developed in microplates which allowed the detection of both diffusible and membrane-attached nondiffusible growth factors. However, it was shown that damaged oocytes produce significant c-fos induction in NIH3T3 cells. A repeatable condition was established, however, which was sensitive enough to detect PDGF c-sis activity secreted from an oocyte injected with 0.08 ng of PDGF c-sis cRNA. This sensitivity was shown allowing for detection of PDGF c-sis activity in a pool of 600 clones. Screening was then conducted of 350 pools of a mouse brain cDNA library with a diversity of an average of 150 clones per pool, and 100 pools of a Xenopus embryo library with a diversity of 80 clones per pool. Considering the biological variation between oocytes, each pool of cRNA was injected into three oocytes and subsequently yielded triplicate results.
# Among these 450 pools, 61 pools were initially found positive. After multiple repeated experiments, 14 remained moderately positive. […] The nucleotide and translated protein sequence for clone 16.1 was determined, and is represented in SEQ ID NO. […]
Molecule,minimum concentration detected by luciferase assay [1] [nM],concentration detectable by bDNA assay against luciferase mRNA [2],concentration detectable by bDNA assay against c-fos mRNA (c-fos mRNA in FTL cells; 4000 FTL cells),concentration inducing c-fos mRNA detected by bDNA assay (c-fos mRNA in FTL cells; as restated in Example 9 from Example 8),EC50 [3] [nM],induction of c-fos transcription [4] [fold],induction of c-fos transcription ([4]; listed as SEQ ID NO. 2)
PDGFBB: PDGF β chain dimer,1,less than 0.01 nM,less than 0.01 nM,less than 0.01 ηM,1,–,–
B1,–,–,–,–,–,5,about 5 fold
